Measurements published in a flash point compilation (Sun et al. 2020).

flash point [°C]	Structure (SMILES)
42.00	COCCO [2-methoxyethanol]
149.00	CCCCCCCCCCCCCCCCC [heptadecane]
-49.00	CCCCC [pentane]

Structure (SMILES)	flash point [°C]
COCCOC [1,2-dimethoxyethane]	0.00

remark: another data set of the same source

Structure (SMILES)	flash point [°C]
COCCOC [1,2-dimethoxyethane]	-2
CC1CO1 (stereo not drawn) [propyleneoxide]	-37
c1cc[nH]c1 [pyrrole]	33
c1ccc2ncccc2c1 [quinoline]	101
c1ccsc1 [thiophene]	-9
C/C=C/C=O [trans-2-butenal]	9

The next lines start with the values.

flash point [°C]	Structure (SMILES)
38	COCCO [2-methoxyethanol]
148	CCCCCCCCCCCCCCCCC [heptadecane]
-40	CCCCC [pentane]
98	CCCOC(=O)c1ccccc1 [propylbenzoate]
31	CCCC1CCCCC1 [propylcyclohexane]
16	CCCC1CCCC1 [propylcyclopentane]
-3	CCCOC=O [propylformate]
16	CCC(C)OC(C)=O (stereo not drawn) [sec-butylacetate]
76	CC(=O)CC(=O)OC(C)(C)C [tert-butylacetoacetate]
40	CC(C)(C)C1CCCCC1 [tert-butylcyclohexane]
-28	COC(C)(C)C [tert-butylmethylether]
20	CCC(=O)OC(C)(C)C [tert-butylpropanoate]
25	CCC(C)(C)OC(C)=O [tert-pentylacetate]
21	C1CCSCC1 [thiacyclohexane]
13	C1CCSC1 [thiacyclopentane]
-6	C/C=C/CCCC [trans-2-heptene]
-25	C/C=C/CCC [trans-2-hexene]
102	CC/C=C/C(=O)O [trans-2-pentenoicacid]
-25	CC/C=C/CC [trans-3-hexene]
9	CC/C=C/CCCC [trans-3-octene]
-27	C/C=C/C(C)C [trans-4-methyl-2-pentene]
71	CCCCN(CCCC)CCCC [tributylamine]
-9	CCN(CC)CC [triethylamine]
111	CCCCCCCCCCCOC(C)=O [undecylacetate]
144	CCCCCCCCCCCc1ccccc1 [undecylbenzene]

remark: another data set of the same source

Structure (SMILES)	flash point [°C]
CC(Cl)(Cl)Cl [1,1,1-trichloroethane]	-1
ClCC(Cl)Cl [1,1,2-trichloroethane]	32
c1ccc2c(c1)CCCC2 [1,2,3,4-tetrahydronaphthalene]	77
O=C1CCCCC1=O [1,2-cyclohexanedione]	84
NCCN [1,2-ethanediamine]	34
C=C=C [1,2-propadiene]	-101
C1=CCC=C1 [1,3-cyclopentadiene]	25
OCCCCCCO [1,6-hexanediol]	101
CCCCCCCBr [1-bromoheptane]	60
CCCCCCCCBr [1-bromooctane]	78
Cc1cccc(I)c1 [1-iodo-3-methylbenzene]	82
CCCCI [1-iodobutane]	33
CCCS [1-propanethiol]	-21
OCC(Cl)CCl (stereo not drawn) [2,3-dichloro-1-propanol]	93
C1=COCC1 [2,3-dihydrofuran]	-24
C=C(C)C(=C)C [2,3-dimethyl-1,3-butadiene]	-22
Cc1ccc(O)c(C)c1 [2,4-dimethylphenol]	94
CC(=O)CCC(C)=O [2,5-hexanedione]	79
CC(C)Br [2-bromopropane]	1
CCC(C)=O [2-butanone]	-9
CCCCOCCOC(C)=O [2-butoxyethyl acetate]	71
CC(Cl)CO (stereo not drawn) [2-chloro-1-propanol]	52
Cc1ccccc1Cl [2-chlorotoluene]	43
CCCCC(CC)CO (stereo not drawn) [2-ethyl-1-hexanol]	77

Structure (SMILES)	flash point [°C]
OCCS [2-mercaptoethanol]	73
C=CC(=C)C [2-methyl-1,3-butadiene]	-48
C=C(C)C=O [2-methyl-2-propenal]	-15
OCCc1ccccc1 [2-phenylethanol]	102
Cc1ccccn1 [2-picoline]	28
C=CC(=O)OCCCC [2-propenoic acid, butyl ester]	37
C=CCCO [3-buten-1-ol]	33
SCCCCl [3-chloro-1-propanethiol]	43
OCCCCl [3-chloro-1-propanol]	73
C=C(C)CCl [3-chloro-2-methyl-1-propene]	-12
Cc1cccc(Cl)c1 [3-chlorotoluene]	50
N#CCCO [3-hydroxypropanenitrile]	129
C=Cc1cccc(C)c1 [3-methylstyrene]	51
CCCCCC(=O)CC [3-octanone]	53
CCOC(=O)CC(C)=O [3-oxobutanoic acid ethyl ester]	70
C=CCCBr [4-bromo-1-butene]	9
Brc1ccc(-c2ccccc2)cc1 [4-bromobiphenyl]	144
CC(=O)CC(C)C [4-methyl-2-pentanone]	14
Cc1ccc(N)cc1 [4-methylaniline]	86
Cc1ccncc1 [4-methylpyridine]	37
C=Cc1ccc(C)cc1 [4-methylstyrene]	45
Cc1ccncc1 [4-picoline]	40
CNc1ccccc1 [N-methylaniline]	80

Other lines, results leading:

flash point [°C]	Structure (SMILES)
44	Cc1ccc(C)c(C)c1 [1,2,4-trimethylbenzene]
56	CCc1ccc(CC)cc1 [1,4-diethylbenzene]
77	CC(O)CN (stereo not drawn) [1-amino-2-propanol]
86	CCCCCCCCCCN [1-decanamine]
6	CCC1(C)CCCC1 [1-ethyl-1-methylcyclopentane]
18	CCN1CCCCC1 [1-ethylpiperidine]
41	CCCCCCCS [1-heptanethiol]
71	CCCCCCCO [1-heptanol]
43	CCCCCI [1-iodopentane]
98	CCCCCCCCCO [1-nonanol]
88	CCCC(=O)c1ccccc1 [1-phenyl-1-butanone]
36	CC(C)(C)CO [2,2-dimethyl-1-propanol]
6	CC(=O)C(C)=O [2,3-butanedione]
-18	C=C(C)C(C)C [2,3-dimethyl-1-butene]
-6	CCC(C)C(C)C (stereo not drawn) [2,3-dimethylpentane]
37	Cc1ccnc(C)c1 [2,4-dimethylpyridine]
95	Cc1ccc(C)c(O)c1 [2,5-dimethylphenol]
73	Cc1cccc(C)c1O [2,6-dimethylphenol]
38	CC1=CC2C(CC1)C2(C)C (stereo not drawn) [2-carene]
50	CCCCC(CC)CN (stereo not drawn) [2-ethyl-1-hexanamine]
87	CCC(CC)C(=O)O [2-ethylbutyric acid]
-21	CC=CCCC [2-hexene]
19	CCC(C)CS (stereo not drawn) [2-methyl-1-butanethiol]
10	C=C(C)CCCCC [2-methyl-1-heptene]
-26	C=C(C)CCC [2-methyl-1-pentene]
27	CC(C)CO [2-methyl-1-propanol]

flash point [°C]	Structure (SMILES)
8	CCCCC=C(C)C [2-methyl-2-heptene]
-23	CCC=C(C)C [2-methyl-2-pentene]
33	C=C(C)CO [2-methyl-2-propen-1-ol]
46	CCC(O)C(C)C (stereo not drawn) [2-methyl-3-pentanol]
14	CC=CCCCCC [2-octene]
9	CCCC(C)S (stereo not drawn) [2-pentanethiol]
100	Cc1ccc(O)c(C(C)(C)C)c1 [2-t-butyl-4-methylphenol]
107	Cc1cccc(C(C)(C)C)c1O [2-t-butyl-6-methylphenol]
20	C=CC(C)O (stereo not drawn) [3-buten-2-ol]
6	CCCC(CC)CC [3-ethylhexane]
35	CCCC(=O)CC [3-hexanone]
-28	C=CC(C)=CC [3-methyl-1,3-pentadiene]
40	CCC(C)C(C)O (stereo not drawn) [3-methyl-2-pentanol]
65	CCCCCC(O)CC (stereo not drawn) [3-octanol]
34	CCC(O)CC [3-pentanol]
104	CCc1ccc(O)cc1 [4-ethylphenol]
70	CC1CCC(O)CC1 (stereo not drawn) [4-methylcyclohexanol]
38	CCCCCC(C)CCC (stereo not drawn) [4-methylnonane]
46	CCCCC=CCCCC [5-decene]
88	CCCCCC(=O)CCCCC [6-undecanone]
35	CN(C)CCCN [N,N-dimethyl-1,3-propanediamine]
48	CN(C)CC1CCCCC1 [N,N-dimethylcyclohexanemethylamine]
116	CCCCNC(C)=O [N-butylacetamide]
110	CCNC(C)=O [N-ethylacetamide]
-31	CNC(C)C [N-methyl-2-propanamine]
